The subject of the experiment is PEPT2. In words: Electrogenic transport in Xenopus oocytes expressing PEPT2 (two-electrode electrophysiology). In kind it is cell-based. The following applies: compound at 1 mM, normalized to saturating glycyl-sarcosine (1 mM). As for the experimental part:
Rat and human PEPT1 and PEPT2 expressing CHO cell lines were prepared as described in PCT Application WO01/20331. Gabapentin-containing dipeptides were evaluated for interaction with the peptide transporters using a radiolabeled substrate uptake assay in a competitive inhibition format, as described in PCT Application WO01/20331. Transport-induced currents were also measured in Xenopus oocytes transfected with rat and human PEPT1 and PEPT2.
Rat and human PEPT1 and PEPT2 transporter cDNAs were subcloned into a modified pGEM plasmid that contains 5′ and 3′ untranslated sequences from the Xenopus β-actin gene. These sequences increase RNA stability and protein expression. Plasmid cDNA was linearized and used as template for in vitro transcription (Epicentre Technologies transcription kit, 4:1 methylated:non-methylated GTP).
Xenopus laevis frogs were anesthetized by immersion in Tricaine ([…] in deionized water) for 15 min. Oocytes were removed and digested in frog ringer solution (90 mM NaCl, 2 mM KCl, 1 mM MgCl2, 10 mM NaHEPES, pH 7.45, no CaCl2) with 1 mg/mL collagenase (Worthington Type 3) for 80-100 min with shaking. […]
Transport currents were measured 2-14 days after injection, using a standard two-electrode electrophysiology set-up (Geneclamp 500 amplifier, Digidata 1320/PCLAMP software and ADInstruments hardware and software were used for signal acquisition). […]

The values that follow come from patent US7767649B2, “Amino acid conjugates providing for sustained systemic concentrations of GABA analogues” (XenoPort, Inc., priority 2002, dated 2010).

Regarding `C[C@H](NC(=O)[C@@H](N)CNC(=O)CC1(CN)CCCCC1)C(=O)O` [N-β-(Gabapentinyl)-L-Diaminopropionyl-L-Alanine], the “induced current as % of Imax” value is listed as 45%.
